# Where a name gives a salt, the structure may show the parent alone. Read-outs that look alike come from different tables or passages of the source.
# Experiments:
# mice = experiment: exploratory light/dark method in mice (two-compartment light-dark activity box); format: in vivo; conditions: for minimal effective dose: Mus musculus, read-out: Light/Dark: minimum effective dose; for Light/Dark: % time spent in lit area: at minimum effective dose
# Protocol: (§1) Anxiolytic properties were determined using an in vitro assay in which competive binding with the 5-HT1A specific agonist, [^3 H]8-hydroxy-2-(di-n-propylamino)tetralin(8-OH-DPAT) to 5HT1A receptors in the dog hippocampus membrane preparation is measured [Hall et al, J. Neurochem. […] Several compounds were also tested in mice is the exploratory light/dark method as described by Young and Johnson, Soc. […] 1988, 14, 207 in which the exploratory behavior of a mouse is a two-compartment light-dark activity box is monitored electrically and behavioral variables such as time spent in the lit versus dark compartments, rearings in either of the two compartments, number of transitions between the two compartments and other exploratory behavioral variables are recorded.
# 5HT1A receptors = target: T1, 5HT1A receptors (Canis lupus familiaris, UniProt Q6XXX9); experiment: biochemical; format: binding, dog
# T1 sequence (Q6XXX9 1-423): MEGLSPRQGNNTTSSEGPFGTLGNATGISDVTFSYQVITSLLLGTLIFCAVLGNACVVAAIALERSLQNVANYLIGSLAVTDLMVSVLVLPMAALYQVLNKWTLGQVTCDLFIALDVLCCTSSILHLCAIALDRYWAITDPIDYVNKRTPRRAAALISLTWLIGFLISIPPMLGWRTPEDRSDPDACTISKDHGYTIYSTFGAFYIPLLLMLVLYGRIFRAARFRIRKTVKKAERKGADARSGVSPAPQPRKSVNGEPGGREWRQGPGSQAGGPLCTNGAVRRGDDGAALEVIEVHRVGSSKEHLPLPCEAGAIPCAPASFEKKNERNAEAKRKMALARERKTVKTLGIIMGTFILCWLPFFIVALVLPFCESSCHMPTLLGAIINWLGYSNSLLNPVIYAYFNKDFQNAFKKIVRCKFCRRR
# Protocol: as §1
# [1] = competitive binding vs [^3 H]8-OH-DPAT, dog hippocampus membrane, buspirone value is an average, read-out: 5HT1A IC50
smiles,measurement,setting,value
"C=CCOc1ccccc1N1CCN(CCCCC2CN(C)C(=O)O2)CC1 (stereo not drawn) [Example 12, 8-methyl-5-[4-[4-[2(2-propenyloxy)phenyl]-1-piperazinyl]butyl]-2-oxazolidinone hydrochloride hydrate (2:4:1)]",minimal effective dose,"mice; mice, IP",1 mg/kg
same,Light/Dark: % time spent in lit area,"mice; mice, IP",66%
same,IC50,5HT1A receptors; [1],0.02 µM
"CN1CC(CCCCN2CCN(c3ncccn3)CC2)OC1=O (stereo not drawn) [Example 4, 3-Methyl-5-[4-[4-(2-pyrimidinyl)-1-piperazinyl]butyl]-2-oxazolidinone]",IC50,5HT1A receptors; [1],0.19 µM
"COc1ccccc1N1CCN(CCCCC2CN(C)C(=O)O2)CC1.Cl.Cl (stereo not drawn) [Example 3, 5-[4-[4-(2-Methoxyphenyl)-1-piperazinyl]butyl]-3-methyl-2-oxazolidinone dihydrochloride]",minimal effective dose,"mice; mice, IP",3.16 mg/kg
same,Light/Dark: % time spent in lit area,"mice; mice, IP",53%
same,IC50,5HT1A receptors; [1],0.015 µM
"O=C1OC(CCCCN2CCN(c3ccccn3)CC2)CN1c1ccccc1 (stereo not drawn) [Example 14, 3-Phenyl-5-[4-[4-(2-pyridinyl)-1-piperazinyl]butyl]-2-oxazolidinone]",IC50,5HT1A receptors; [1],0.0077 µM
"CN1CC(CCCN2CCN(c3ccccc3O)CC2)OC1=O (stereo not drawn) [Example 10, 5-[3-[4-(2-hydroxyphenyl)-1-piperazinyl]propyl]-3-methyl-2-oxazolidinone]",IC50,5HT1A receptors; [1],0.11 µM
"O=C1OC(CCCCN2CCN(c3ccccc3O)CC2)CN1c1ccccc1 (stereo not drawn) [Example 17, 5-[4-[4-(2-hydroxyphenyl)-1-piperazinyl]butyl]-3-phenyl-2-oxazolidinone]",IC50,5HT1A receptors; [1],0.015 µM
"CN1CC(CCCCN2CCN(c3ccccc3O)CC2)OC1=O (stereo not drawn) [Example 11, 5-[4-[4-(2-Hydroxyphenyl)-1-piperazinyl]butyl]-3-methyl-2-oxazolidinone]",IC50,5HT1A receptors; [1],0.04 µM
"O=C1OC(CCCN2CCN(c3ncccn3)CC2)CN1c1ccccc1 (stereo not drawn) [Example 20, 3-Phenyl-5-[3-[4-(2-pyrimidinyl)-1-piperazinyl]propyl]2-oxazolidinone]",IC50,5HT1A receptors; [1],0.17 µM
"COc1ccccc1N1CCN(CCCCC2CN(c3ccccc3)C(=O)O2)CC1 (stereo not drawn) [Example 13, 5-[4-[4-(2-Methoxyphenyl)-1-piperazinyl]butyl]-3-phenyl-2-oxazolidinone hydrochloride hydrate (2:2:1)]",IC50,5HT1A receptors; [1],0.0022 µM
"CN1CC(CCCCN2CCN(c3ccccc3)CC2)OC1=O (stereo not drawn) [Example 1, 3-Methyl-5-[4-(4-phenyl-1-piperazinyl)butyl]-2-oxazolidinone]",minimal effective dose,"mice; mice, IP",10 mg/kg
same,Light/Dark: % time spent in lit area,"mice; mice, IP",56%
same,IC50,5HT1A receptors; [1],0.059 µM
"O=C1OC(CCCCN2CCN(c3ncccn3)CC2)CN1c1ccccc1 (stereo not drawn) [Example 15, 3-Phenyl-5-[4-[4-(2-pyrimidinyl)-1-piperazinyl]butyl]-2-oxazolidinone]",IC50,5HT1A receptors; [1],0.029 µM
"COc1ccccc1N1CCN(CCCC2CN(C)C(=O)O2)CC1 (stereo not drawn) [Example 5, 5-[3-[4-(2-Methoxyphenyl)-1-piperazinyl]propyl]-3-methyl-2-oxazolidinone hydrochloride hydrate (2:2:3)]",IC50,5HT1A receptors; [1],0.029 µM
"O=C1OC(CCCCN2CCN(c3ccccc3)CC2)CN1c1ccccc1 (stereo not drawn) [Example 16, 3-Phenyl-5-[4-(4-phenyl-1-piperazinyl)butyl]-2-oxazolidinone]",IC50,5HT1A receptors; [1],0.0082 µM
"COc1ccccc1N1CCN(CCCC2CN(c3ccccc3)C(=O)O2)CC1 (stereo not drawn) [Example 23, 5-[3-[4-(2-Methoxyphenyl)-1-piperazinyl]propyl]-3-phenyl-2-oxazolidinone hydrochloride hydrate (1:2)]",IC50,5HT1A receptors; [1],0.011 µM
"CCOc1ccccc1N1CCN(CCCC2CN(c3ccccc3)C(=O)O2)CC1 (stereo not drawn) [Example 21, 5-[3-[4-(2-Ethoxyphenyl)-1-piperazinyl]propyl]-3-phenyl-2-oxazolidinone hydrochloride hydrate (2:4:1)]",IC50,5HT1A receptors; [1],0.018 µM
O=C1OC(CCCN2CCN(c3ccccc3)CC2)CN1c1ccccc1 (stereo not drawn) [Example 22],IC50,5HT1A receptors; [1],0.05 µM
"CN1CC(CCCCN2CCN(c3ccccn3)CC2)OC1=O (stereo not drawn) [Example 2, 3-Methyl-5-[4-[4-(2-pyridinyl)-1-piperazinyl]butyl]-2-oxazolidinone]",minimal effective dose,"mice; mice, IP",3.16 mg/kg
same,Light/Dark: % time spent in lit area,"mice; mice, IP",53%
same,IC50,5HT1A receptors; [1],0.061 µM
"CCOc1ccccc1N1CCN(CCCCC2CN(c3ccccc3)C(=O)O2)CC1 (stereo not drawn) [Example 18, 5-[4-[4-(2-Ethoxyphenyl)-1-piperazinyl]butyl]-3-phenyl-2-oxazolidinone hydrochloride hydrate (2:4:1)]",IC50,5HT1A receptors; [1],0.002 µM
"O=C1OC(CCCN2CCN(c3ccccn3)CC2)CN1c1ccccc1 (stereo not drawn) [Example 19, 3-Phenyl-5-[3-[4-(2-pyridinyl)-1-piperazinyl]propyl]-2-oxazolidinone]",IC50,5HT1A receptors; [1],0.057 µM
"O=C1CC2(CCCC2)CC(=O)N1CCCCN1CCN(c2ncccn2)CC1 [Buspirone, buspirone, reference compound]",minimal effective dose,mice; ip,5.62 mg/kg
same,minimal effective dose,mice; po,5.62 mg/kg
same,Light/Dark: % time spent in lit area,"mice; mice, IP",51%
same,Light/Dark: % time spent in lit area,"mice; mice, PO",54%
same,IC50,5HT1A receptors,0.0132 µM
"CCOc1ccccc1N1CCN(CCCC2CN(C)C(=O)O2)CC1 (stereo not drawn) [Example 8, 5-[3-[4-(2-Ethoxyphenyl)-1-piperazinyl]propyl]-3-methyl-2-oxazolidinone]",IC50,5HT1A receptors; [1],0.022 µM
"CN1CC(CCCN2CCN(c3ccccn3)CC2)OC1=O (stereo not drawn) [Example 6, 3-Methyl-5-[3-[4-(2-pyridinyl)-1-piperazinyl]propyl]-2-oxazolidinone hydrochloride hydrate (2:4:1)]",IC50,5HT1A receptors; [1],0.11 µM
"CN1CC(CCCN2CCN(c3ncccn3)CC2)OC1=O (stereo not drawn) [Example 7, 3-Methyl-5-[3-[4-(2-pyrimidinyl)-1-piperazinyl]propyl]-2-oxazolidinone]",IC50,5HT1A receptors; [1],0.51 µM
"CCOc1ccccc1N1CCN(CCCCC2CN(C)C(=O)O2)CC1 (stereo not drawn) [Example 9, 5-[4-[4-(2-Ethoxyphenyl)-1-piperazinyl]butyl]-3-methyl-2-oxazolidinone dihydrochloride]",IC50,5HT1A receptors; [1],0.016 µM
